Reference: US9561228B2 (Celgene Avilomics Research, Inc., priority 2013, dated 2017)

The molecules below were run on ERK1/2 phosphorylation of p90RSK in HCT116 cells (assay: Detection of total and phospho-RSK by MSD ELISA (HCT116)). Details: Homo sapiens, HCT-116, read-out: ERK1/ERK2 PRSK HCT116 EC50.
Type: cell-based
Summary of the method: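 ERK1/2 activity read in cells as p90RSK phosphorylation: lysates from HCT116 cells given compound for 2 h at 37° C were captured on MSD plates. Detection used a pSer380 RSK or a total RSK antibody with SulfoTag secondaries.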

| EC50 [nM] | SMILES |
| --- | --- |
| < 100 | C=CC(=O)Nc1cc(C)ccc1Nc1nc(Nc2cc(C)nc(OC)c2)ncc1C(F)(F)F [Compound I-295, N-(2-((2-((2-methoxy-6-methylpyridin-4-yl)amino)-5-(trifluoromethyl)pyrimidin-4-yl)amino)-5-methylphenyl)acrylamide] |
| < 100 | C=CC(=O)Nc1cc(OC)ccc1Nc1nc(Nc2cc(OC)ncc2C)ncc1C(F)(F)F [Compound I-284, N-(5-Methoxy-2-((2-((2-methoxy-5-methylpyridin-4-yl)amino)-5-(trifluoromethyl)pyrimidin-4-yl)amino)phenyl)acrylamide] |
| < 100 | C=CC(=O)Nc1ccccc1Nc1nc(Nc2cc(OC)nc(OCCOC)c2)ncc1C(F)(F)F [Compound I-283, N-(2-((2-((2-Methoxy-6-(2-methoxyethoxyl)pyridin-4-yl)amino)-5-(trifluoromethyl)pyrimidin-4-yl)amino)phenyl)acrylamide] |
| > 1000 | C=CC(=O)Nc1cc(OC)ccc1Nc1nc(Nc2cc(OC)ncc2C)ncc1Cl [Compound I-242, N-(2-((5-chloro-2-((2-methoxy-5-methylpyridin-4-yl)amino)pyrimidin-4-yl)amino)-5-methoxyphenyl)acrylamide] |
| < 100 | C=CC(=O)Nc1cc(C)ccc1Nc1nc(Nc2cc(OC)nc(N3CCN(C)CC3)c2)ncc1C(F)(F)F [Compound I-325, N-(2-((2-((2-methoxy-6-(4-methylpiperazin-1-yl)pyridin-4-yl)amino)-5-(trifluoromethyl)pyrimidin-4-yl)amino)-5-methylphenyl)acrylamide] |
| < 100 | C=CC(=O)Nc1ccccc1Nc1nc(Nc2cc(OC)cc(OC)c2)ncc1C(F)(F)F [Compound I-338, N-(2-((2-((3,5-dimethoxyphenyl)amino)-5-(trifluoromethyl)pyrimidin-4-yl)amino)phenyl)acrylamide] |
| < 100 | C=CC(=O)Nc1ccccc1Nc1nc(Nc2cc(OC)nc(N3CCCCC3)c2)ncc1C(F)(F)F [Compound I-282, N-(2-((2-((2-Methoxy-6-(piperidin-1-yl)pyridin-4-yl)amino)-5-(trifluoromethyl)pyrimidin-4-yl)amino)phenyl)acrylamide] |
| 101 to 500 | C=CC(=O)Nc1cc(C)ccc1Nc1nc(Nc2cc(OC)cc(OC)c2)ncc1C(F)(F)F [Compound I-339, N-(2-((2-((3,5-dimethoxyphenyl)amino)-5-(trifluoromethyl)pyrimidin-4-yl)amino)-5-methylphenyl)acrylamide] |
| < 100 | C=CC(=O)Nc1ccccc1Nc1nc(Nc2cc(N[C@H]3CC[C@@H](O)CC3)nc(OC)c2)ncc1C(F)(F)F [Compound I-292] |
| 101 to 500 | C=CC(=O)Nc1cc(C)ccc1Nc1nc(Nc2cc(OC)nc(N(C)CCOC)c2)ncc1C(F)(F)F [Compound I-336, N-(2-((2-((2-methoxy-6-((2-methoxyethyl)(methyl)amino)pyridin-4-yl)amino)-5-(trifluoromethyl)pyrimidin-4-yl)amino)-5-methylphenyl)acrylamide] |
| < 100 | C=CC(=O)Nc1cc(C)ccc1Nc1nc(Nc2cc(OC)nc(N3CCN(C(C)=O)CC3)c2)ncc1Cl [Compound I-296, N-(2-((2-((2-(4-acetylpiperazin-1-yl)-6-methoxypyridin-4-yl)amino)-5-chloropyrimidin-4-yl)amino)-5-methylphenyl)acrylamide] |
| < 100 | C=CC(=O)Nc1ccccc1Nc1nc(Nc2cc(OC)nc(N3CCCC3)c2)ncc1C(F)(F)F [Compound I-281, N-(2-((2-((2-Methoxy-6-(pyrrolidin-1-yl)pyridin-4-yl)amino)-5-(trifluoromethyl)pyrimidin-4-yl)amino)phenyl)acrylamide] |
| 101 to 500 | C=CC(=O)Nc1cc(C)ccc1Nc1nc(Nc2ccnc(F)c2)ncc1C(F)(F)F [Compound I-288, N-(2-((2-((2-Fluoropyridin-4-yl)amino)-5-(trifluoromethyl)pyrimidin-4-yl)amino)-5-methylphenyl)acrylamide] |
| < 100 | C=CC(=O)Nc1ccccc1Nc1nc(Nc2cc(OC)nc(N3CCS(=O)(=O)CC3)c2)ncc1C(F)(F)F [Compound I-291, N-(2-((2-((2-(1,1-Dioxidothiomorpholino)-6-methoxypyridin-4-yl)amino)-5-(trifluoromethyl)pyrimidin-4-yl)amino)phenyl)acrylamide] |
| 101 to 500 | C=CC(=O)Nc1ccccc1Nc1nc(Nc2ccnc(F)c2)ncc1C(F)(F)F [Compound I-287, N-(2-((2-((2-Fluoropyridin-4-yl)amino)-5-(trifluoromethyl)pyrimidin-4-yl)amino)phenyl)acrylamide] |
| 101 to 500 | C=CC(=O)Nc1cc(C)ccc1Nc1nc(Nc2cc(OC)nc(N(C)C3CC3)c2)ncc1C(F)(F)F [Compound I-342, N-(2-((2-((2-(cyclopropyl(methyl)amino)-6-methoxypyridin-4-yl)amino)-5-(trifluoromethyl)pyrimidin-4-yl)amino)-5-methylphenyl)acrylamide] |

| EC50 [nM] | SMILES |
| --- | --- |
| > 1000 | C=CS(=O)(=O)Nc1cc(C)ccc1Nc1nc(Nc2cc(OC)ncc2C)ncc1C(F)(F)F [Compound I-333, N-(2-((2-((2-methoxy-5-methylpyridin-4-yl)amino)-5-(trifluoromethyl)pyrimidin-4-yl)amino)-5-methylphenyl)ethenesulfonamide] |
| 101 to 500 | C=CC(=O)Nc1cc(F)ccc1Nc1nc(Nc2cc(OC)ncc2C)ncc1C(F)(F)F [Compound I-322, N-(5-fluoro-2-((2-((2-methoxy-5-methylpyridin-4-yl)amino)-5-(trifluoromethyl)pyrimidin-4-yl)amino)phenyl)acrylamide] |
| 101 to 500 | C=CC(=O)Nc1ccccc1Nc1nc(Nc2cc(OC)ccc2C)ncc1C(F)(F)F [Compound I-340, N-(2-((2-((5-methoxy-2-methylphenyl)amino)-5-(trifluoromethyl)pyrimidin-4-yl)amino)phenyl)acrylamide] |
| > 1000 | C=CC(=O)Nc1cc(C)ccc1Nc1nc(Nc2cc(OC)ccc2C)ncc1C(F)(F)F [Compound I-341, N-(2-((2-((5-methoxy-2-methylphenyl)amino)-5-(trifluoromethyl)pyrimidin-4-yl)amino)-5-methylphenyl)acrylamide] |
| < 100 | C=CC(=O)Nc1cc(OC)ccc1Nc1nc(Nc2cc(OC)nc(N3CCN(C)CC3)c2)ncc1C(F)(F)F [Compound I-334, N-(5-methoxy-2-((2-((2-methoxy-6-(4-methylpiperazin-1-yl)pyridin-4-yl)amino)-5-(trifluoromethyl)pyrimidin-4-yl)amino)phenyl)acrylamide] |
| > 1000 | C=CC(=O)Nc1ccccc1Nc1nc(Nc2cc(F)ccc2C)ncc1C(F)(F)F [Compound I-285, N-(2-((2-((5-Fluoro-2-methylphenyl)amino)-5-(trifluoromethyl)pyrimidin-4-yl)amino)phenyl)acrylamide] |
| 101 to 500 | C=CC(=O)Nc1cc(C)ccc1Nc1nc(Nc2cc(OC)ncc2C)ncc1C(F)(F)F [Compound I-90, N-(2-((2-((2-Methoxy-5-methylpyridin-4-yl)amino)-5-(trifluoromethyl)pyrimidin-4-yl)amino)-5-methylphenyl)acrylamide] |
| < 100 | C=CC(=O)Nc1cc(C)ccc1Nc1nc(Nc2cc(N[C@H]3CC[C@@H](O)CC3)nc(OC)c2)ncc1C(F)(F)F [Compound I-326, N-(2-((2-((2-((cis-4-hydroxycyclohexyl)amino)-6-methoxypyridin-4-yl)amino)-5-(trifluoromethyl)pyrimidin-4-yl)amino)-5-methylphenyl)acrylamide] |
| < 100 | C=CC(=O)Nc1ccccc1Nc1nc(Nc2cc(OC)nc(N3CCN(C)CC3)c2)ncc1C(F)(F)F [Compound I-324, N-(2-((2-((2-methoxy-6-(4-methylpiperazin-1-yl)pyridin-4-yl)amino)-5-(trifluoromethyl)pyrimidin-4-yl)amino)phenyl)acrylamide] |
| 101 to 500 | C=CC(=O)Nc1cc(C(F)(F)F)ccc1Nc1nc(Nc2cc(OC)ncc2C)ncc1C(F)(F)F [Compound I-323, N-(2-((2-((2-methoxy-5-methylpyridin-4-yl)amino)-5-(trifluoromethyl)pyrimidin-4-yl)amino)-5-(trifluoromethyl)phenyl)acrylamide] |
| < 100 | C=CC(=O)Nc1ccccc1Nc1nc(Nc2cc(NCCOC)nc(OC)c2)ncc1C(F)(F)F [Compound I-286, N-(2-((2-((2-Methoxy-6-((2-methoxyethyl)amino)pyridin-4-yl)amino)-5-(trifluoromethyl)pyrimidin-4-yl)amino)phenyl)acrylamide] |
| < 100 | C=CC(=O)Nc1cc(C)ccc1Nc1nc(Nc2cc(OC)nc(N3CC(O)C3)c2)ncc1C(F)(F)F [Compound I-328, N-(2-((2-((2-(3-hydroxyazetidin-1-yl)-6-methoxypyridin-4-yl)amino)-5-(trifluoromethyl)pyrimidin-4-yl)amino)-5-methylphenyl)acrylamide] |
| < 100 | C=CC(=O)Nc1ccccc1Nc1nc(Nc2ccnnc2)ncc1C(F)(F)F [Compound I-293, N-(2-((2-(Pyridazin-4-ylamino)-5-(trifluoromethyl)pyrimidin-4-yl)amino)phenyl)acrylamide] |
| < 100 | C=CC(=O)Nc1cc(C)ccc1Nc1nc(Nc2cc(NC3CC3)nc(OC)c2)ncc1C(F)(F)F [Compound I-337, N-(2-((2-((2-(cyclopropylamino)-6-methoxypyridin-4-yl)amino)-5-(trifluoromethyl)pyrimidin-4-yl)amino)-5-methylphenyl)acrylamide] |
| < 100 | C=CC(=O)Nc1cc(OC)ccc1Nc1nc(Nc2cc(OC)nc(N3CCN(C(C)=O)CC3)c2)ncc1C(F)(F)F [Compound I-91, N-(2-((2-((2-(4-Acetylpiperazin-1-yl)-6-methoxypyridin-4-yl)amino)-5-(trifluoromethyl)pyrimidin-4-yl)amino)-5-methoxyphenyl)acrylamide] |
